# Data: patent US8354416B2 (Glaxo Group Limited, priority 2005, dated 2013)
# Tested on: influx of neutrophils to the lung in LPS-challenged rats
# Assay: Rat LPS neutrophilia model
# Assay type: in vivo
# Details: intratracheal, LPS aerosol 100 ug/ml, in at least one of the range of conditions tested, significance p<0.05
# Experimental: Rat LPS Neutrophilia Model
# The effect of compounds on the influx of neutrophils to the lung in LPS-challenged rats is evaluated as follows. The test compound is suspended in one of the following solutions: 0.5% tween 80/PBS, 0.5% tween 80/saline, 10% EtOH/saline (with pH adjusted to 2.0, or 8.0 with HCl, or unadjusted), Saline (pH 2.0, 6.5 or 8.0, 0.5% Tragacanth, 1% DMSO/20% Encapsin/Saline, or acidified 5% Tragacanth. The suspension process may be aided by the use of a glass homogenizer. For intratracheal administration, the animals are anesthetized with inhaled isoflurane and placed in a supine position, the trachea is intubated with a steel gavage needle (1.5 inch, 22 gauge, small ball) or a Penn-Century Microsprayer Aerosolizer (model IA-1B) and 200 ul of dosing solution is delivered. The animals are visually monitored during the recovery process, which typically occurs within two minutes. It is noted that the test compounds may be alternatively administered via the microsprayer in a dry powder blend with a suitable excipient, such as lactose.
# Rats treated with compound or vehicle (15 min-24 hours pretreatment) are exposed to an LPS aerosol (100 ug/ml) for 15 min. Four hours later the rats are euthanized with pentobarbital (100 mg/kg, i.p.) and the airways are lavaged with 5 washes of 5 ml of phosphate buffered saline. The harvested cells are stained (Diffquick) and counted to determine total and differential cell data. […] Inhibition of neutrophil levels relative to no compound controls is calculated based on the differential counts.
# The data is obtained as % inhibition using a particular concentration and pretreat time.
row,Structure (SMILES),inhibition of neutrophilia (neutrophil levels in airway lavage relative to no compound controls)
1,"Cc1ccc(C(=O)Nc2ccc(F)cc2)cc1-c1nc(NC2CC(C)(C)NC(C)(C)C2)nc2c1ccc(=O)n2-c1c(F)cccc1F [Example 66, 3-{8-(2,6-difluorophenyl)-7-oxo-2-[(2,2,6,6-tetramethyl-4-piperidinyl)amino]-7,8-dihydropyrido[2,3-d]pyrimidin-4-yl}-N-(4-fluorophenyl)-4-methylbenzamide]",statistically significant inhibition of neutrophilia
2,"Cc1ccc(C(=O)Nc2nccs2)cc1-c1nc(NC2CC(C)(C)NC(C)(C)C2)nc2c1ccc(=O)n2-c1c(F)cccc1F [Example 67, 3-{8-(2,6-difluorophenyl)-7-oxo-2-[(2,2,6,6-tetramethyl-4-piperidinyl)amino]-7,8-dihydropyrido[2,3-d]pyrimidin-4-yl}-4-methyl-N-1,3-thiazol-2-ylbenzamide]",statistically nonsignificant inhibition of neutrophilia
3,"Cc1ccc(C(=O)NC(C)C)cc1-c1nc(N2CCC(N)CC2)nc2c1ccc(=O)n2-c1c(F)cccc1F [Example 68, 3-[2-(4-amino-1-piperidinyl)-8-(2,6-difluorophenyl)-7-oxo-7,8-dihydropyrido[2,3-d]pyrimidin-4-yl]-4-methyl-N-(1-methylethyl)benzamide]",statistically significant inhibition of neutrophilia
4,"CCCNC(=O)c1ccc(C)c(-c2nc(N3CCC(N)CC3)nc3c2ccc(=O)n3-c2c(F)cccc2F)c1 [Example 69, 3-[2-(4-amino-1-piperidinyl)-8-(2,6-difluorophenyl)-7-oxo-7,8-dihydropyrido[2,3-d]pyrimidin-4-yl]-4-methyl-N-propylbenzamide]",statistically significant inhibition of neutrophilia
5,"Cc1ccc(C(=O)NC2CCCC2)cc1-c1nc(N2CCC(N)CC2)nc2c1ccc(=O)n2-c1c(F)cccc1F [Example 70, 3-[2-(4-amino-1-piperidinyl)-8-(2,6-difluorophenyl)-7-oxo-7,8-dihydropyrido[2,3-d]pyrimidin-4-yl]-N-cyclopentyl-4-methylbenzamide]",statistically nonsignificant inhibition of neutrophilia
6,"Cc1ccc(C(=O)NCc2ccccc2)cc1-c1nc(N2CCC(N)CC2)nc2c1ccc(=O)n2-c1c(F)cccc1F [Example 71, 3-[2-(4-amino-1-piperidinyl)-8-(2,6-difluorophenyl)-7-oxo-7,8-dihydropyrido[2,3-d]pyrimidin-4-yl]-4-methyl-N-(phenylmethyl)benzamide]",statistically nonsignificant inhibition of neutrophilia
7,"Cc1ccc(C(=O)Nc2ccc(F)cc2)cc1-c1nc(N2CCC(N)CC2)nc2c1ccc(=O)n2-c1c(F)cccc1F [Example 72, 3-[2-(4-amino-1-piperidinyl)-8-(2,6-difluorophenyl)-7-oxo-7,8-dihydropyrido[2,3-d]pyrimidin-4-yl]-N-(4-fluorophenyl)-4-methylbenzamide]",statistically significant inhibition of neutrophilia
8,"Cc1ccc(C(=O)Nc2nccs2)cc1-c1nc(N2CCC(N)CC2)nc2c1ccc(=O)n2-c1c(F)cccc1F [Example 73, 3-[2-(4-amino-1-piperidinyl)-8-(2,6-difluorophenyl)-7-oxo-7,8-dihydropyrido[2,3-d]pyrimidin-4-yl]-4-methyl-N-1,3-thiazol-2-ylbenzamide]",statistically significant inhibition of neutrophilia
9,"Cc1ccc(C(=O)NC2CCCC2)cc1-c1nc(NCc2ncc[nH]2)nc2c1ccc(=O)n2-c1c(F)cccc1F [Example 76, N-cyclopentyl-3-{8-(2,6-difluorophenyl)-2-[(1H-imidazol-2-ylmethyl)amino]-7-oxo-7,8-dihydropyrido[2,3-d]pyrimidin-4-yl}-4-methylbenzamide]",statistically nonsignificant inhibition of neutrophilia
10,"Cc1ccc(C(=O)NCc2ccccc2)cc1-c1nc(NCc2ncc[nH]2)nc2c1ccc(=O)n2-c1c(F)cccc1F [Example 77, 3-{8-(2,6-difluorophenyl)-2-[(1H-imidazol-2-ylmethyl)amino]-7-oxo-7,8-dihydropyrido[2,3-d]pyrimidin-4-yl}-4-methyl-N-(phenylmethyl)benzamide]",statistically significant inhibition of neutrophilia
11,"Cc1ccc(C(=O)Nc2ccc(F)cc2)cc1-c1nc(NCc2ncc[nH]2)nc2c1ccc(=O)n2-c1c(F)cccc1F [Example 78, 3-{8-(2,6-difluorophenyl)-2-[(1H-imidazol-2-ylmethyl)amino]-7-oxo-7,8-dihydropyrido[2,3-d]pyrimidin-4-yl}-N-(4-fluorophenyl)-4-methylbenzamide]",statistically significant inhibition of neutrophilia
12,"Cc1ccc(C(=O)Nc2ccc(F)cc2)cc1-c1nc(NCCN(C)C(=O)OC(C)(C)C)nc2c1ccc(=O)n2-c1c(F)cccc1F [Example 95, 1,1-dimethylethyl (2-{[8-(2,6-difluorophenyl)-4-(5-{[(4-fluorophenyl)amino]carbonyl}-2-methylphenyl)-7-oxo-7,8-dihydropyrido[2,3-d]pyrimidin-2-yl]amino}ethyl)methylcarbamate]",statistically nonsignificant inhibition of neutrophilia
13,"Cc1ccc(C(=O)Nc2ccc(F)cc2)cc1-c1nc(N(C)CCN(C)C)nc2c1ccc(=O)n2-c1c(F)cccc1F [Example 99, 3-{8-(2,6-difluorophenyl)-2-[[2-(dimethylamino)ethyl](methyl)amino]-7-oxo-7,8-dihydropyrido[2,3-d]pyrimidin-4-yl}-N-(4-fluorophenyl)-4-methylbenzamide]",statistically nonsignificant inhibition of neutrophilia
14,"Cc1ccc(C(=O)Nc2nccs2)cc1-c1nc(NCCCNC(C)C)nc2c1ccc(=O)n2-c1c(F)cccc1F [Example 101, 3-[8-(2,6-difluorophenyl)-2-({3-[(1-methylethyl)amino]propyl}amino)-7-oxo-7,8-dihydropyrido[2,3-d]pyrimidin-4-yl]-4-methyl-N-1,3-thiazol-2-ylbenzamide]",statistically significant inhibition of neutrophilia
15,"Cc1ccc(C(=O)Nc2nccs2)cc1-c1nc(NCCCNC(C)(C)C)nc2c1ccc(=O)n2-c1c(F)cccc1F [Example 102, 3-[8-(2,6-difluorophenyl)-2-({3-[(1,1-dimethylethyl)amino]propyl}amino)-7-oxo-7,8-dihydropyrido[2,3-d]pyrimidin-4-yl]-4-methyl-N-1,3-thiazol-2-ylbenzamide]",statistically nonsignificant inhibition of neutrophilia
16,"Cc1ccc(C(=O)Nc2nccs2)cc1-c1nc(NCCNC(C)C)nc2c1ccc(=O)n2-c1c(F)cccc1F [Example 103, 3-[8-(2,6-difluorophenyl)-2-({2-[(1-methylethyl)amino]ethyl}amino)-7-oxo-7,8-dihydropyrido[2,3-d]pyrimidin-4-yl]-4-methyl-N-1,3-thiazol-2-ylbenzamide]",statistically significant inhibition of neutrophilia
17,"CCCNC(=O)c1ccc(C)c(-c2nc(N(C)CCCN(C)C)nc3c2ccc(=O)n3-c2c(F)cccc2F)c1 [Example 104, 3-{8-(2,6-difluorophenyl)-2-[[3-(dimethylamino)propyl](methyl)amino]-7-oxo-7,8-dihydropyrido[2,3-d]pyrimidin-4-yl}-4-methyl-N-propylbenzamide]",statistically significant inhibition of neutrophilia
18,"CCCNC(=O)c1ccc(C)c(-c2nc(NCCN(C)C)nc3c2ccc(=O)n3-c2c(F)cccc2F)c1 [Example 105, 3-(8-(2,6-difluorophenyl)-2-{[2-(dimethylamino)ethyl]amino}-7-oxo-7,8-dihydropyrido[2,3-d]pyrimidin-4-yl)-4-methyl-N-propylbenzamide]",statistically significant inhibition of neutrophilia
19,"Cc1ccc(C(=O)Nc2nccs2)cc1-c1nc(N(C)CCCN(C)C)nc2c1ccc(=O)n2-c1c(F)cccc1F [Example 107, 3-{8-(2,6-difluorophenyl)-2-[[3-(dimethylamino)propyl](methyl)amino]-7-oxo-7,8-dihydropyrido[2,3-d]pyrimidin-4-yl}-4-methyl-N-1,3-thiazol-2-ylbenzamide]",statistically significant inhibition of neutrophilia
20,"Cc1ccc(C(=O)Nc2nccs2)cc1-c1nc(NCCN(C)C)nc2c1ccc(=O)n2-c1c(F)cccc1F [Example 109, 3-(8-(2,6-difluorophenyl)-2-{[2-(dimethylamino)ethyl]amino}-7-oxo-7,8-dihydropyrido[2,3-d]pyrimidin-4-yl)-4-methyl-N-1,3-thiazol-2-ylbenzamide]",statistically significant inhibition of neutrophilia
